Values joined by “and” are separate entries in the source; they are usually repeats but may differ in a detail not shown here. Equal entries are not always repeated. Where two headings read alike, the source gives them in different places.
Tests used:
[1] = test system: Maximal Electroshock (MES) model of acute generalized tonic clonic seizures; test: MES test of fenfluramine (FFA) alone, dose and time range; type: in vivo, mouse
Text: Results are depicted in Table 6 below.

[2] = test system: Maximal Electroshock (MES) model of acute generalized tonic clonic seizures; test: MES test of fenfluramine in combination with serotonergic inhibitors; details: for Activity in MES model in presence of FFA (animals protected): Table 7, compound combined with 3 mg/kg FFA; for Impaired (I/F) / Protected (N/F): compound IP at Table 5 dose and time of test, with fenfluramine 3 mg/kg IP 4 hr pre-test; for effect on FFA anti-seizure activity in MES model (in words): summary of Table 7
Method: Specifically, the present example describes characterization of anticonvulsant effects of fenfluramine when administered in combination with various other compounds using a murine model of seizures: a Maximal Electroshock (IVIES) model. Maximal Electroshock (IVIES) is a model of acute generalized tonic clonic seizures. Induction of seizures is caused by 60 Hz 0.2 second alternating 50 mA current in the mouse. Tonic hindlimb extensions are measured to assess seizures or seizure protection.
So, for example, a compound with a 1 hour time of peak activity would be administered 3 hours after FEN administration in the study design.

5-HT1D = 5-HT1D (Homo sapiens, UniProt P28221); details: Table 4, cited from earlier work; for Ki: values from ChemBL, PDSP or DrugBank.ca and literature
Sequence of 5-HT1D (P28221 whole entry, species assumed): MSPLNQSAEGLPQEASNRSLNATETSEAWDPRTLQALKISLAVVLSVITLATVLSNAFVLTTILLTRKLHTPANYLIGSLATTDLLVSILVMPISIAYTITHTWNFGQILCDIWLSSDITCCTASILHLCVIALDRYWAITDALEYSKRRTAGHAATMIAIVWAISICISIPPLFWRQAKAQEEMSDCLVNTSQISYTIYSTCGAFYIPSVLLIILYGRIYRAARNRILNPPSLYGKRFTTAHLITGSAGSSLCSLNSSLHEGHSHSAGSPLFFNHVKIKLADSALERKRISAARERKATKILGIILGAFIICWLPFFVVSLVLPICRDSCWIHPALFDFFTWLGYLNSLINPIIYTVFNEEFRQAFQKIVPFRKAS

5-HT1A = biological target: T1, 5-HT1A (Homo sapiens, UniProt P08908); details: cited from earlier work; for Ki: values from ChemBL, PDSP or DrugBank.ca and literature
T1 sequence (P08908 1-422): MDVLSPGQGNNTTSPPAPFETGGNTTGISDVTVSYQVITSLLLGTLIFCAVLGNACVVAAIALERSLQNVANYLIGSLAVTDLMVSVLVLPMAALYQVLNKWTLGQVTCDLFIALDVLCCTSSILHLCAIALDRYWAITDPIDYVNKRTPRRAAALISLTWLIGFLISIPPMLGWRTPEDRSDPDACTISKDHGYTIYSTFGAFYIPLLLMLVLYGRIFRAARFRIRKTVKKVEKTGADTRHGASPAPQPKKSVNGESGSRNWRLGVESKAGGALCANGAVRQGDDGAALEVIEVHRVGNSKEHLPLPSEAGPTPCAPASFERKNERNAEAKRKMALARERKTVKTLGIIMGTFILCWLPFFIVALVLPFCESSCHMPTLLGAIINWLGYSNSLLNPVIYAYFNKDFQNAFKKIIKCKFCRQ

5-HT1B = 5-HT1B (Homo sapiens, UniProt P28222); details: cited from earlier work
Sequence of 5-HT1B (P28222 whole entry, species assumed): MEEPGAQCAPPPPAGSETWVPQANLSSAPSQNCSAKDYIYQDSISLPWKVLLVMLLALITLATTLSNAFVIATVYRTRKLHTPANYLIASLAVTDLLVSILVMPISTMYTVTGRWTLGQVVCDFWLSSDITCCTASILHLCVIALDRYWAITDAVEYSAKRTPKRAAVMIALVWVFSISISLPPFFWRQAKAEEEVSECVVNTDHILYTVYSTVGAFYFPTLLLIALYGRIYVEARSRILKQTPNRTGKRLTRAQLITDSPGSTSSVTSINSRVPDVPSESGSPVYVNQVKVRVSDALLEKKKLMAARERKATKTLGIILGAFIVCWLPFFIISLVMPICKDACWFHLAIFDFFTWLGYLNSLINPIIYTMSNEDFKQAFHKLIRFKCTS

5-HT2C = biological target: T2, 5-HT2C (Homo sapiens, UniProt P28335); details: Table 4; values from ChemBL, PDSP or DrugBank.ca and literature; cited from earlier work
T2 sequence (P28335 33-458): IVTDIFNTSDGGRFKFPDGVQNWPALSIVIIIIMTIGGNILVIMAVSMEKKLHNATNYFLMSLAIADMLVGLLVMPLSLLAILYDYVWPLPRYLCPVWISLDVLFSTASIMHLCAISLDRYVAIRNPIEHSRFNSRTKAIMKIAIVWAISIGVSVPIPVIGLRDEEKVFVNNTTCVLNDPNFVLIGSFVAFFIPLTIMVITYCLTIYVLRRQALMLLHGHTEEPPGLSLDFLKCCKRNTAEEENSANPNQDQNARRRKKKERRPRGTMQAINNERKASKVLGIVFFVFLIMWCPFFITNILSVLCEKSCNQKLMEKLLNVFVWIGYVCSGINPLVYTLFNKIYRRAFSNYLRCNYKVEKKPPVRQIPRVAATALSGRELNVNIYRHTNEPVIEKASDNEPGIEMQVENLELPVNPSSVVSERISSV

Dravet syndrome seizures = details: supplemented with clobazam and valproate; cited from earlier work
5-HT2A = 5-HT2A (Homo sapiens, UniProt P28223); details: Table 4; values from ChemBL, PDSP or DrugBank.ca and literature; cited from earlier work
Sequence of 5-HT2A (P28223 whole entry): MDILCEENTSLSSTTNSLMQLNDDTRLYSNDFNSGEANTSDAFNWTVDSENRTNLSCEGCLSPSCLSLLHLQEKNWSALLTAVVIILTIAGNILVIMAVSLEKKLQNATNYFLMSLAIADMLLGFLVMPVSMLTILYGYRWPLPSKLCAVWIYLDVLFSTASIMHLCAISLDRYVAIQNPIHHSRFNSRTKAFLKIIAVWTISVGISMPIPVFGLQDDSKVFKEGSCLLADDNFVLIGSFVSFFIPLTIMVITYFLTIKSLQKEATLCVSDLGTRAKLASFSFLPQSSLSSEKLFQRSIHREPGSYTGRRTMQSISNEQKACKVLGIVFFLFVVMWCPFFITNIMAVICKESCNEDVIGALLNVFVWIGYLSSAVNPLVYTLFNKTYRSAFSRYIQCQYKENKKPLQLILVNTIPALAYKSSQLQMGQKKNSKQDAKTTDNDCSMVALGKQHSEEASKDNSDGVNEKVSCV

MES test = details: cited from earlier work
[3] = fenfluramine 3 mg/kg IP plus vehicle (VEH) only
[4] = 50% inhibition of specific binding, Moser et al. 1990

Structure (SMILES) | Activity in MES model in presence of FFA (animals protected) [2] | Impaired (I/F) [2] | Protected (N/F) [2] | effect on FFA anti-seizure activity in MES model (in words) [2] | Ki (5-HT1D) | further results
CCNC(C)Cc1cccc(C(F)(F)F)c1 (racemic) [Fenfluramine, (RS)—N-ethyl-1-[3-(trifluoromethyl)phenyl]propan-2-amine] | – | – | – | – | – | Activity in MES model: FFA protected ([1]; 2.5 mg/kg IP, 4 hr pre-MES, SOW #1 MES Quantification): FFA protected = 3/4; animals protected in the MES assay ([1]; 3 mg/kg FFA): 50-60%; Activity in MES model: FFA protected ([1]; 3 mg/kg IP, 2 hr pre-MES, SOW #1 MES Identification): FFA protected = 3/4; Activity in MES model: FFA protected ([1]; 3 mg/kg, 4 hr pre-MES, SOW #2 (-) control): FFA protected = 4/8; Activity in MES model: FFA protected ([1]; 3 mg/kg, 4 hr pre-MES, SOW #3 (-) control): FFA protected = 5/8; Activity in MES model: FFA protected ([1]; 5 mg/kg IP, 4 hr pre-MES, SOW #1 MES Quantification): FFA protected = 6/8; protection in the MES model ([1]; 10 mg/kg FFA): 100%; Activity in MES model: FFA protected ([1]; 10 mg/kg IP, 2 hr pre-MES, SOW #1 MES Time Course): FFA protected = 3/4; Activity in MES model: FFA protected ([1]; 10 mg/kg IP, 4 hr pre-MES, SOW #1 MES Quantification): FFA protected = 8/8; Activity in MES model: FFA protected ([1]; 10 mg/kg IP, 4 hr pre-MES, SOW #1 MES Time Course): FFA protected = 4/4; Impaired (I/F) [1, 3]: 0/8; Protected (N/F) [1, 3]: 4/8 and 5/8
OC(CN1CCN(c2cccc(Cl)c2)CC1)C(c1ccccc1)c1ccccc1 (stereo not drawn) [BRL 15572] | FFA reduced protection = 1/8 | 0/8 | 1/8 | appear to block FFA anti-seizure activity | – | pKi 5-HT1D (5-HT1D): 7.9; pKi 5-HT1A (5-HT1A; Table 4): 7.7
O=C1CC2(CCCC2)CC(=O)N1CCNCC1COc2ccccc2O1 (stereo not drawn) [Binospirone] | FFA protected = 3/8 | 0/8 | 3/8 | – | – | pIC50 5-HT1B (5-HT1B; [4]): 4.5; pIC50 5-HT1A (5-HT1A; [4]): 8.6
NC(=O)N1c2ccccc2C=Cc2ccccc21 [Carbamazepine] | Protected = 8/8 | 0/8 | 8/8 | no interference was observed | – | –
CN(C)CCCN1c2ccccc2Sc2ccc(Cl)cc21 [Chlorpromazine] | FFA protected = 5/8 | – | 5/8 | do not block FFA anti-seizure activity | 452 nM | –
CN1CCN(C2=Nc3cc(Cl)ccc3Nc3ccccc32)CC1 [Clozapine] | FFA reduced protection = 1/8 | – | – | appear to block FFA anti-seizure activity | – | –
CN1CCN(C2=Nc3ccccc3Oc3ccc(Cl)cc32)CC1 [Loxapine] | – | – | – | – | 3470 nM | Ki (5-HT2C): 9.5 to 21 nM; Ki (5-HT1B; Table 4, values from ChemBL, PDSP or DrugBank.ca and literature): 388 nM; Ki (5-HT1A; Table 4): 2460 nM
Clc1ccc2c(c1)N=C(N1CCNCC1)c1ccccc1N2 [N-desmethyl-clozapine, N-desmethylclozapine] | FFA reduced protection = 1/8 | 0/8 | 1/8 | appear to block FFA anti-seizure activity | 130 nM | Ki (5-HT2C): 4.8 nM; Ki (5-HT1A; Table 4): 160 nM
O=c1[nH]c2ccccc2n1C1CCN(CCCC(c2ccc(F)cc2)c2ccc(F)cc2)CC1 [Pimozide] | FFA protected = 3/8 | – | 3/8 | do not block FFA anti-seizure activity | 3100 nM | –
CC(C)NCC(O)COc1cccc2[nH]ccc12 (stereo not drawn) [Pindolol] | FFA protected = 5/8 | – | 5/8 | do not block FFA anti-seizure activity | 4900 nM | –
CC(C)(C)C(O)/C=C/c1ccc2c(c1)OCO2 (stereo not drawn) [Stiripentol, stiripentol] | – | – | – | – | – | reduction of overall seizure rate (Dravet syndrome seizures): 70%
CN1CC2c3ccccc3Oc3ccc(Cl)cc3C2C1 (stereo not drawn) [asenapine] | FFA reduced protection = 2/8 | 0/8 | 2/8 | – | 10.2 nM | Ki (5-HT2A): 0.77 nM; Ki (5-HT2C): 0.27 nM; Ki (5-HT1A; Table 4): 15 nM
CN(C)CCCN1c2ccccc2CCc2ccc(Cl)cc21 [clomipramine] | FFA protected = 7/8 | 0/8 | 7/8 | do not block FFA anti-seizure activity | – | Ki (5-HT2C): 64.6 nM
CN(C)CCC=C1c2ccccc2COc2ccccc21 [doxepin] | FFA protected = 7/8 | – | 7/8 | do not block FFA anti-seizure activity | – | ED50 in MES test (MES test; 0.25 hr post-administration): 8.2 mg/kg; ED50 in MES test (MES test; IP, at TPE of 5 min): 6.6 mg
CN1CCN2c3ccccc3Cc3ccccc3C2C1 (stereo not drawn) [mianserin] | FFA reduced protection = 2/8 | 0/8 | 2/8 | – | – | –
OCCN1CCN(CCCN2c3ccccc3Sc3ccc(Cl)cc32)CC1 [perphenazine] | FFA reduced protection = 2/8 | – | 2/8 | – | – | –

— patent publication US20210137853A1, “METHODS OF TREATING EPILEPTIC PATIENTS WITH FENFLURAMINE” (Zogenix International Limited, priority 2019, published 2021)
